Laboratory results taken from patent US20080312147A1, “Compositions and Methods for the Regulation of Hair Growth” (NUGENE INC., priority 2007, published 2008).

Tested on: 5-α-reductase
Assay: interruption of 5-α-reductase activity by copper containing peptides
Type: biochemical
Conditions: stated in words only; said to act by preventing binding of testosterone to the active site; no method or data given

interruption of the activity of 5-α-reductase	Substance
interrupt 5-α-reductase	Cu(II)-His-Val-His
interrupt the activity of 5-α-reductase	Gly-His-Lys-Cu(II)
interrupt 5-α-reductase	His-Ala-His-Cu(II)
